# According to PubChem BioAssay AID1963972 (Molecular Pharmacology Branch, DTP, NCI, 2024):
# “And” between values parts separate entries of the source, which are not always exact repeats. Equal values may be shown once.
# Test system: 945468-187-T-J2-PDC spheroids viability
# Assay: Anticancer human tumor 945468-187-T-J2-PDC patient-derived rectal carcinoma cell line growth inhibition [PI3K]
# Conditions: spheroids with HUVEC and MSC; for viability, T/C: stronger effect = lower value
# Text: Combinatorial screen of targeted agents with the PI3K inhibitors inavolisib, alpelisib, duvelisib, and copanlisib in multi-cell type tumor spheroids
# A high-throughput screen of multi-cell type tumor spheroids was designed to identify active combinations of targeted small molecules and PI3K pathway inhibitors. Complex spheroids include a stromal component modeled by human endothelial cells (HUVEC) and fibroblasts modeled by human mesenchymal stem cells (MSCs). The concentration ranges selected for each drug and investigational agent were based upon clinically achievable concentrations if the clinical Cmax of the agent was known.
# Compounds. The drugs and investigational agents: inavolisib (NSC800729), alpelisib (NSC765974), duvelisib (NSC772469), copanlisib (NSC816437), ipatasertib (NSC767898), afuresertib (NSC778305), talazoparib (NSC767125), sapanisertib (NSC764658), selumetinib (NSC741078), tovorafenib (DAY101, NSC766906), vemurafenib (NSC761431), ravoxertinib (NSC781343), sotorasib (NSC818433), MRTX1133 (NSC 836407), abemaciclib (NSC 768073), palbociclib (NSC758247), venetoclax (NSC 766270), SY5609 (NSC837396), enzalutamide (NSC755605), and darolutamide (NSC825331), were obtained from the National Cancer Institute (NCI) Developmental Therapeutics Program Chemical Repository. The FDA-approved anticancer drug set is available from the NCI Developmental Therapeutics Program. […] The stock solutions were prepared in dimethyl sulfoxide (DMSO, Sigma-Aldrich, St. Louis, MO, cat. D2650) at 800-fold the tested concentration and stored at -70 degrees C prior to their use. All drugs and investigational agents were tested over a range starting from a high concentration at or near the clinical Cmax and decreasing in half-log increments. If the clinical Cmax for an agent had not been determined, the highest concentration tested was 10 microM.
# Cell Culture. All cells were maintained in an incubator at 37 degrees C and 5% CO2 with 95% humidity. The PDC lines were cultured according to standard operating procedures established by the NCI PDMR (https://pdmr.cancer.gov/sops/default.htm). All PDCs were thawed and cultured in Matrigel-coated flasks prepared with a working solution of 1X Ham's F-12 nutrient mix, without supplementation (Invitrogen, Waltham, MA, cat. 11765054), 100 U/mL penicillin-streptomycin (Invitrogen, cat. 15140122), and 2.5% Matrigel (Corning Inc., Corning, NY, cat. 354248) for the first three passages. The 354836-022-R-J1-PDC, 475296-252-R-J1-PDC, and 997726-040-R-J2-PDC lines were cultured in 6A media, which includes advanced DMEM/F-12 (Thermo Fisher Scientific, cat. 12634028), 10 mM HEPES (Thermo Fisher Scientific, cat. 15630080), 1X GlutaMAX supplement (Thermo Fisher Scientific, cat. 35050061), 0.1 mg/mL primocin (InvivoGen, San Diego, CA, cat. ant-pm-2), 10% defined fetal bovine serum, heat inactivated (HyClone Laboratories Inc., Logan, UT, cat. SH30070.03HI), 50% L-WRN conditioned media (ATCC, cat. CRL-3276), 1.25 mM N-Acetyl-L-cysteine (Sigma-Aldrich, cat. A9165), 10 mM nicotinamide (Sigma-Aldrich, cat. N0636), 1X B-27 supplement (Thermo Fisher Scientific, cat. 17504044), 1X N-2 supplement (Thermo Fisher Scientific, cat. 17502048), and 10 microM Y-27632 dihydrochloride (Tocris Bioscience, Bristol, United Kingdom, cat. 1254). The 624824-186-R-J2-PDC line was cultured in 6C/Colon 1B media, which includes all 6A media components plus 50 ng/mL human EGF recombinant protein (Thermo Fisher Scientific, cat. PHG0311). […]
# [1] = compound alone, run of 04/24/2023
# [2] = compound alone, run of 04/25/2023
# 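Further: spheroids exposed to compounds for seven days before reading.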
Compound,"viability, T/C (compound 0.0316 µM)","viability, T/C (compound 0.316 µM)",IC50 (curve of compound),"viability, T/C (compound 0.1 µM)","viability, T/C (compound 3.16 µM)","viability, T/C (compound 1 µM)",also measured
C#Cc1c(F)ccc2cc(O)cc(-c3ncc4c(N5CC6CCC(C5)N6)nc(OCC56CCCN5CC(F)C6)nc4c3F)c12 (stereo not given),109% [middle of 4 runs],106% (2×) and 90.2% and 116%,> 10 µM,–,–,–,–
C=CC(=O)N1CCN(c2nc(=O)n(-c3c(C)ccnc3C(C)C)c3nc(-c4c(O)cccc4F)c(F)cc23)C(C)C1 (stereo not given),–,95.7% [middle of 4 runs],> 10 µM,104% [middle of 4 runs],104% (2×) and 113% and 89.9%,–,"viability, T/C (compound 10 µM): 107% [middle of 4 runs]"
CC(=O)c1c(C)c2cnc(Nc3ccc(N4CCNCC4)cn3)nc2n(C2CCCC2)c1=O,–,–,> 0.1 µM,–,–,–,"viability, T/C (compound 0.000316 µM): 105% [middle of 4 runs]; viability, T/C (compound 0.00316 µM): 90.6% [middle of 4 runs]; viability, T/C (compound 0.01 µM): 104% [middle of 4 runs]"
CC(C)NCC(C(=O)N1CCN(c2ncnc3c2C(C)CC3O)CC1)c1ccc(Cl)cc1 (stereo not given),–,90.2% [middle of 4 runs],> 10 µM,91.8% [middle of 4 runs],99.7% [middle of 4 runs],103% [middle of 4 runs],–
CC(C)n1nc(-c2ccc3oc(N)nc3c2)c2c(N)ncnc21,94.4% [middle of 4 runs],–,> 0.1 µM,71.9% [middle of 4 runs],–,–,"viability, T/C (compound 0.001 µM): 92.3% [middle of 4 runs]"
CC(Cn1ccc(-c2ccc(C#N)c(Cl)c2)n1)NC(=O)c1cc(C(C)O)[nH]n1 (stereo not given),–,–,> 10 µM,–,93.7% [middle of 4 runs],–,–
CC(Nc1ccc2c(c1)OCCn1cc(N3C(=O)OCC3C(F)F)nc1-2)C(N)=O (stereo not given),–,91.7% [middle of 8 runs],–,106% [middle of 8 runs],–,76.9% [middle of 8 runs],"viability, T/C (compound 0.01 µM): 99% [middle of 8 runs]; IC50 [1]: > 1 µM"
CC(Nc1ncnc2nc[nH]c12)c1cc2cccc(Cl)c2c(=O)n1-c1ccccc1 (stereo not given),–,96.3% [middle of 8 runs],–,91.9% [middle of 8 runs],–,–,"viability, T/C (compound 10 µM): 103% [middle of 8 runs]; IC50 [2]: > 10 µM"
CC1(C)CCC(CN2CCN(c3ccc(C(=O)NS(=O)(=O)c4ccc(NCC5CCOCC5)c([N+](=O)[O-])c4)c(Oc4cnc5[nH]ccc5c4)c3)CC2)=C(c2ccc(Cl)cc2)C1,–,94.6% [middle of 4 runs],> 10 µM,–,96.3% [middle of 4 runs],103% [middle of 4 runs],–
CC1(C)CCC(Nc2ncc(C(F)(F)F)c(-c3c[nH]c4c(P(C)(C)=O)c(C#N)ccc34)n2)CN1 (stereo not given),94.2% (2×) and 113% and 89.1%,–,–,96.6% [middle of 4 runs],43% [middle of 4 runs],–,–
CCCS(=O)(=O)Nc1ccc(F)c(C(=O)c2c[nH]c3ncc(-c4ccc(Cl)cc4)cc23)c1F,104% [middle of 4 runs],94% [middle of 4 runs],5.05 µM [middle of 4 runs],88.8% [middle of 4 runs],–,99.4% [middle of 4 runs],"viability, T/C (compound 10 µM): 5.55% [middle of 4 runs]"
CCN1CCN(Cc2ccc(Nc3ncc(F)c(-c4cc(F)c5nc(C)n(C(C)C)c5c4)n3)nc2)CC1,–,98.3% [middle of 4 runs],> 1 µM,–,–,78% [middle of 4 runs],"viability, T/C (compound 0.00316 µM): 98.9% [middle of 4 runs]"
CNC(=O)c1ccc(N2C(=S)N(c3ccc(C#N)c(C(F)(F)F)c3)C(=O)C2(C)C)cc1F,92.1% [middle of 4 runs],89% [middle of 4 runs],> 10 µM,106% (2×) and 93.2% and 121%,91.6% [middle of 4 runs],85.3% [middle of 4 runs],–
COc1c(OCCCN2CCOCC2)ccc2c3n(c(=NC(=O)c4cnc(N)nc4)nc12)CCN3,–,40.8% [middle of 8 runs],–,–,–,22.5% [middle of 8 runs],"viability, T/C (compound 0.00316 µM): 102% [middle of 8 runs]; IC50 [2]: 250 nM [middle of 7 runs]"
C[C@@H](NC(=O)c1ncnc(N)c1Cl)c1ncc(C(=O)Nc2cc(C(F)(F)F)c(Cl)cn2)s1,115% [middle of 4 runs],107% [middle of 4 runs],> 10 µM,95.1% [middle of 4 runs],–,–,"viability, T/C (compound 10 µM): 94.3% [middle of 4 runs]"
Cc1nc(NC(=O)N2CCCC2C(N)=O)sc1-c1ccnc(C(C)(C)C(F)(F)F)c1 (stereo not given),95.8% [middle of 8 runs],–,–,97.5% [middle of 8 runs],–,–,IC50 [1]: > 10 µM
Cn1cnc2c(F)c(Nc3ccc(Br)cc3Cl)c(C(=O)NOCCO)cc21,–,–,> 3 µM,–,–,–,"viability, T/C (compound 0.949 µM): 83.3% [middle of 4 runs]; viability, T/C (compound 3 µM): 79.8% [middle of 4 runs]"
Cn1ncc(Cl)c1-c1cc(C(=O)NC(CN)Cc2cccc(F)c2)sc1Cl (stereo not given),–,–,> 10 µM,90.9% [middle of 4 runs],76.5% [middle of 4 runs],84.6% [middle of 4 runs],–
Cn1nccc1Nc1nccc(-c2ccn(C(CO)c3ccc(Cl)c(F)c3)c(=O)c2)n1 (stereo not given),–,101% (2×) and 108% and 94.5%,> 10 µM,101% [middle of 4 runs],94.1% [middle of 4 runs],–,"viability, T/C (compound 10 µM): 78.3% [middle of 4 runs]"
Cn1ncnc1[C@H]1c2n[nH]c(=O)c3cc(F)cc(c23)N[C@@H]1c1ccc(F)cc1,110% (2×) and 104% and 93.3%,–,> 0.1 µM,104% [middle of 4 runs],–,–,"viability, T/C (compound 0.000316 µM): 105% [middle of 4 runs]; viability, T/C (compound 0.00316 µM): 93.9% [middle of 4 runs]; viability, T/C (compound 0.01 µM): 88.9% [middle of 4 runs]"
